Measured values published in ChEMBL document CHEMBL1932941, “3-mercapto-1,2,4-triazoles and N-acylated thiosemicarbazides as metallo-β-lactamase inhibitors” (Bioorg Med Chem Lett, 2012).

What was measured:
[1] = molecular target: Beta-lactamase (Pseudomonas aeruginosa) (UniProt Q79MP6); assay: Competitive inhibition of Pseudomonas aeruginosa beta-lactamase IMP-1 assessed as formation of 4-nitrothiophenolate at pH 7 using CENTA as chromogenic substrate
[2] = molecular target: Beta-lactamase (Pseudomonas aeruginosa) (UniProt Q79MP6); assay: Inhibition of Pseudomonas aeruginosa beta-lactamase IMP-1 expressed in Escherichia coli BL21(DE3) at 10 uM using CENTA as chromogenic substrate
[3] = molecular target: Beta-lactamase (Pseudomonas aeruginosa) (UniProt Q79MP6); assay: Uncompetitive inhibition of Pseudomonas aeruginosa beta-lactamase IMP-1 assessed as formation of 4-nitrothiophenolate at pH 7 using CENTA as chromogenic substrate
[4] = molecular target: Beta-lactamase (Pseudomonas aeruginosa) (UniProt Q79MP6); assay: Inhibition of Pseudomonas aeruginosa beta-lactamase IMP-1 expressed in Escherichia coli BL21(DE3) at 100 uM using CENTA as chromogenic substrate
[5] = molecular target: Beta-lactamase (Pseudomonas aeruginosa) (UniProt Q79MP6); assay: Inhibition of Pseudomonas aeruginosa beta-lactamase IMP-1 expressed in Escherichia coli BL21(DE3) at 1000 uM using CENTA as chromogenic substrate
[6] = Solubility of the compound; type: physicochemical

Beta-lactamase (Pseudomonas aeruginosa), sequence (Q79MP6 19-246 limits assumed): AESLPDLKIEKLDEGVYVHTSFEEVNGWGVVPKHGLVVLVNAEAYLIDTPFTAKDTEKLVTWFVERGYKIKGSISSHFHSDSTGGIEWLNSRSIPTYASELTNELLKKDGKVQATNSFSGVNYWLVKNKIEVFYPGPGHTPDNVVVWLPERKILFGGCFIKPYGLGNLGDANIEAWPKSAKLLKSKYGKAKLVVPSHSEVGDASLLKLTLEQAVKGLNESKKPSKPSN

| SMILES | inhibition [2] | Kiuc [3] | other results |
| --- | --- | --- | --- |
| NC(S)=NNC(=O)c1ccccc1 | 22% | 30 µM | Kic [1]: 19 µM |
| O=C(c1ccccc1)c1ccc(-c2nnc(S)[nH]2)cc1 | 10% | 56 µM | Kic [1]: 75 µM; inhibition [4]: 44% |
| Cc1nnc[nH]1 |  |  | inhibition [5]: 0% |
| NC(=S)NNC(=O)c1ccc(C(=O)c2ccccc2)cc1 | 34% | 26 µM | Kic [1]: 13 µM |
| CNC(=S)NNC(=O)C(C)(C)C | 0% |  |  |
| O=C(O)c1ccccc1-c1nnc(S)[nH]1 | 0% |  | inhibition [4]: 7% |
| NC(=S)NNC(=O)CCC(=O)O | 13% |  |  |
| Cn1c(S)nnc1C(F)(F)F |  |  | inhibition [5]: 51% |
| O=C(O)CCCc1nnc(S)[nH]1 | 0% |  | inhibition [4]: 5% |
| NC(=S)NNC(=O)c1cccc([N+](=O)[O-])c1 | 30% |  |  |
| CCc1nnc(S)[nH]1 |  |  | inhibition [5]: 32% |
| NC(=S)NNC(=O)CCCC(=O)O | 8% |  |  |
| Cc1nnc(S)[nH]1 |  |  | inhibition [5]: 33% |
| CC(C)(C)C(=O)NNC(N)=S | 0% |  |  |
| CCCCCCSc1nnc(C(C)(C)C)[nH]1 |  |  | solubility [6]: Insoluble |
| Cc1ccc(C(=O)c2ccc(C(=O)NNC(N)=S)cc2)cc1 | 38% | 20 µM | Kic [1]: 41 µM |
| FC(F)(F)c1nnc(S)[nH]1 |  |  | inhibition [5]: 45% |
| O=C(O)CCc1nnc(S)[nH]1 | 10% |  | inhibition [4]: 10% |
| NC(=S)NNC(=O)c1ccc(Cc2ccccc2)cc1 | 26% | 37 µM | Kic [1]: 18 µM |
| C[C@H](CS)C(=O)N1CCC[C@H]1C(=O)O |  | > 2000 µM |  |
| NC(=S)NNC(=O)c1ccccc1C(=O)O | 0% |  |  |
| CC(C)(C)c1nnc(S)[nH]1 |  |  | inhibition [5]: 32% |
| O=[N+]([O-])c1cccc(-c2nnc(S)[nH]2)c1 |  |  | solubility [6]: Insoluble |
| CSc1nnc(C(C)(C)C)[nH]1 |  |  | inhibition [5]: 10% |
| NC(=S)NNC(=O)c1ccc(C(=O)c2ccccc2Cl)cc1 | 51% | 13 µM | Kic [1]: 14 µM |
| Sc1n[nH]c(-c2ccccc2)n1 |  |  | inhibition [5]: 0% |
| NC(=S)NNC(=O)c1ccc(C(=O)c2ccc([N+](=O)[O-])cc2)cc1 | 45% | 20 µM | Kic [1]: 11 µM |
| NC(=S)NNC(=O)c1ccc(C(=O)c2cccc([N+](=O)[O-])c2)cc1 | 45% | 15 µM | Kic [1]: 16 µM |
| CCCCCCc1nnc(S)[nH]1 |  |  | solubility [6]: Insoluble |
